Several values for one entry are separate records, joined by “and”; a condition that tells them apart may be missing. Equal values may be shown once. Blank lines part the entries; values can stand above or below the compound they belong to.
System: 463943-066-T-J2-PDC complex spheroid growth
Assay: Anticancer human tumor 463943-066-T-J2-PDC patient-derived colon adenocarcinoma cell line growth inhibition [Asc]
Details: for viability, T/C: stronger effect = lower value
Description: Multicellular complex tumor spheroid response to apoptosis pathway targeting inhibitors Alrizomadlin, Pelcitoclax, and Dasminapant in combination with a variety of drugs and investigational agents in selected tumor cell lines
The MDM2 inhibitor alrizomadlin, the Bcl-2/Bcl-xL inhibitor pelcitoclax, and the IAPs inhibitor dasminapant were evaluated both individually and in combination with standard of care and investigational anticancer small molecules within a complex spheroid model of solid tumors. . Complex spheroids include a stromal component modeled by human endothelial cells (HUVEC) and fibroblasts modeled by human mesenchymal stem cells (MSCs). The concentration ranges selected for each drug and investigational agent were based upon clinically achievable concentrations if the clinical Cmax of the agent was known.
Compounds. The drugs and investigational agents: alrizomadlin (APG-115; NSC831270), pelcitoclax (APG-1252; NSC835773), dasminapant (APG-1387;NSC834197), TAK-243 (NSC785004), copanlisib (NSC809693), olaparib (NSC753686), talazoparib (NSC767125), cobimetinib (NSC 768068), eltanexor (KPT-8602, NSC 794443), abemaciclib (NSC 768073), sotorasib (NSC818433), adagrasib (NSC 831453), MRTX-1133 (NSC 836407), Iadademestat (ORY1001, NSC 806812), and RMC-4630 (NSC839698), were obtained from the NCI Developmental Therapeutics Program Chemical Repository. The FDA-approved anticancer drug set is available from the Developmental Therapeutics Program at https://dtp.cancer.gov/organization/dscb/obtaining/available plates.htm. […] The stock solutions were prepared in dimethyl sulfoxide (DMSO, Sigma-Aldrich, St. Louis, MO, cat. D2650) at 800-fold the tested concentration and stored at -70 degrees C prior to their use. All drugs and investigational agents were tested over a range starting from a high concentration at or near the clinical Cmax and decreasing in half-log increments. If the clinical Cmax for an agent had not been determined, the highest concentration tested was 10 microM.
The patient-derived cancer (PDC) cell lines include five colon adenocarcinomas: 186277-243-T-J2-PDC, 616215-338-R-J1-PDC, 439559-082-T-J2-PDC, 463943-066-T-J2-PDC, and 519858-162-T-J1-PDC; three pancreatic carcinomas: 323965-272-R-J2-PDC, 521955-158-R6-J3-PDC, and 521955-158-R2-J5-PDC; two uterine sarcomas: 327498-152-R-J2-PDC and 993429-296-R-J1-PDC; two rhabdomyosarcomas: 755483-174-R-J1-PDC and 772245-204-R-J1-PDC; two soft tissue sarcomas: 126254-015-R-J1-PDC and 494315-158-R-J1-PDC; two malignant fibrous histiocytomas: 317291-083-R-J1-PDC and 596521-263-R-J1-PDC; two breast carcinomas: 171881-019-R-J1-PDC and 885512-296-R-J2-PDC; and one ovarian carcinoma: 6556581-035-R-J-PDC were obtained from the NCI PDMR, (https://pdmr.cancer.gov). The established cell lines HSSY-2 synovial sarcoma (RRID:CVCL 8719), SYO-1 synovial sarcoma (RRID:CVCL_7146), MPNST malignant peripheral neural sheath tumor were obtained from the Sloan Kettering Institute. The following established cell lines were purchased from the American Type Culture Collection (ATCC, Manassas, VA), Sor the received from the NCI repository:, PANC-1 pancreatic carcinoma (CRL-1469, RRID:CVCL_0480), OVCAR-5 ovarian carcinoma (RRID:CVCL_1628), OVCAR-8 ovarian carcinoma (RRID:CVCL_1629), , MCF-7 breast carcinoma (CRL-12584, RRID:CVCL_0031), MDA-MB-231 breast carcinoma (CRL-12532, RRID:CVCL_0062), NCI-H1876 small cell lung carcinoma (CRL-5902, RRID:CVCL_1503), NCI-H510A small cell lung carcinoma (HTB-184, RRID:CVCL_1565), NCI-H1417 (CRL-5869, RRID:CVCL_1469), and NCI-H196 small cell lung carcinoma (CRL-5823, RRID:CVCL_1509). Dr. Peter Houghton (Greehey Children's Cancer Research Institute, University of Texas Health Science Center, San Antonio, TX) provided Rh-18 rhabdomyosarcoma (RRID:CVCL_1659). Pooled donor human umbilical vein endothelial cells (HUVEC, Lonza, cat. CC-2519) and human mesenchymal stem cells (hMSC, Lonza, cat. PT-2501) were purchased from Lonza (Walkersville, MD).
Cell Culture. […]

[1] = curve of first compound, second compound 0.0316 µM
[2] = curve of first compound, second compound 0.1 µM
[3] = curve of first compound, second compound 0.316 µM
[4] = curve of first compound, second compound 1 µM
[5] = curve of first compound, second compound 3.16 µM
[6] = curve of first compound, second compound 10 µM
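Also: compound exposure lasted 7 days.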
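For viability, T/C in this document: 100% = DMSO vehicle control wells.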

- IC50 (curve of compound): > 0.1 µM
SMILES: Cn1ncnc1[C@H]1c2n[nH]c(=O)c3cc(F)cc(c23)N[C@@H]1c1ccc(F)cc1
- viability, T/C (compound 0.000316 µM): 98.9% and 88% and 106%
- viability, T/C (compound 0.001 µM): 91.2% and 98.6% and 99.5%
- viability, T/C (compound 0.00316 µM): 103% and 107% and 104%
- viability, T/C (compound 0.01 µM): 96.4% and 102% (2×)
- viability, T/C (compound 0.0316 µM): 102% and 103% (2×)
- viability, T/C (compound 0.1 µM): 99.3% and 97.9% and 94%

- IC50 [1]: 5.64 µM
- IC50 [2]: 4.89 µM
- IC50 [3]: 3.88 µM
- IC50 [4]: 2.3 µM
- IC50 [5]: 1.17 µM
- IC50 [6]: < 0.0316 µM
SMILES: C=C(F)C(=O)N1CCN(c2nc(OCC3CCCN3C)nc3c2CCN(c2cccc4cccc(Cl)c24)C3)CC1CC#N (stereo unspecified) + Cc1c(S(C)(=O)=O)c(-c2cc(F)cc(N3CCN(c4ccc(NS(=O)(=O)c5ccc(NC(CCN6CCC(C(=O)OCCCP(=O)(O)O)CC6)CSc6ccccc6)c(S(=O)(=O)C(F)(F)F)c5)cc4)CC3)c2)c(-c2ccc(Cl)cc2)n1C(C)C
- viability, T/C (second compound 0.0316 µM, first compound 0.0316 µM): 92.4%
- viability, T/C (second compound 0.0316 µM, first compound 0.1 µM): 95.5%
- viability, T/C (second compound 0.0316 µM, first compound 0.316 µM): 95.9%
- viability, T/C (second compound 0.0316 µM, first compound 1 µM): 106%
- viability, T/C (second compound 0.0316 µM, first compound 3.16 µM): 93.1%
- viability, T/C (second compound 0.0316 µM, first compound 10 µM): 7.35%
- viability, T/C (second compound 0.1 µM, first compound 0.0316 µM): 98.2%
- viability, T/C (second compound 0.1 µM, first compound 0.1 µM): 93.5%
- viability, T/C (second compound 0.1 µM, first compound 0.316 µM): 90.8%
- viability, T/C (second compound 0.1 µM, first compound 1 µM): 98.4%
- viability, T/C (second compound 0.1 µM, first compound 3.16 µM): 79.5%
- viability, T/C (second compound 0.1 µM, first compound 10 µM): 1.47%
- viability, T/C (second compound 0.316 µM, first compound 0.0316 µM): 92%
- viability, T/C (second compound 0.316 µM, first compound 0.1 µM): 85.7%
- viability, T/C (second compound 0.316 µM, first compound 0.316 µM): 87%
- viability, T/C (second compound 0.316 µM, first compound 1 µM): 85.7%
- viability, T/C (second compound 0.316 µM, first compound 3.16 µM): 60.8%
- viability, T/C (second compound 0.316 µM, first compound 10 µM): 0.26%
- viability, T/C (second compound 1 µM, first compound 0.0316 µM): 80.3%
- viability, T/C (second compound 1 µM, first compound 0.1 µM): 80.4%
- viability, T/C (second compound 1 µM, first compound 0.316 µM): 72.5%
- viability, T/C (second compound 1 µM, first compound 1 µM): 72.4%
- viability, T/C (second compound 1 µM, first compound 3.16 µM): 41.8%
- viability, T/C (second compound 1 µM, first compound 10 µM): 0.2%
- viability, T/C (second compound 3.16 µM, first compound 0.0316 µM): 62.4%
- viability, T/C (second compound 3.16 µM, first compound 0.1 µM): 58.4%
- viability, T/C (second compound 3.16 µM, first compound 0.316 µM): 56.4%
- viability, T/C (second compound 3.16 µM, first compound 1 µM): 54.5%
- viability, T/C (second compound 3.16 µM, first compound 3.16 µM): 23.1%
- viability, T/C (second compound 3.16 µM, first compound 10 µM): 0.22%
- viability, T/C (second compound 10 µM, first compound 0.0316 µM): 46.1%
- viability, T/C (second compound 10 µM, first compound 0.1 µM): 47.7%
- viability, T/C (second compound 10 µM, first compound 0.316 µM): 47.4%
- viability, T/C (second compound 10 µM, first compound 1 µM): 41.7%
- viability, T/C (second compound 10 µM, first compound 3.16 µM): 16.4%
- viability, T/C (second compound 10 µM, first compound 10 µM): 0.26%

- IC50 [1]: > 0.3 µM
- IC50 [2]: > 0.3 µM
- IC50 [3]: > 0.3 µM
- IC50 [4]: > 0.3 µM
- IC50 [5]: > 0.3 µM
- IC50 [6]: 0.000949 µM
SMILES: NC(=O)C(=Cn1cnc(-c2cc(C(F)(F)F)cc(C(F)(F)F)c2)n1)c1cncnc1 + Cc1c(S(C)(=O)=O)c(-c2cc(F)cc(N3CCN(c4ccc(NS(=O)(=O)c5ccc(NC(CCN6CCC(C(=O)OCCCP(=O)(O)O)CC6)CSc6ccccc6)c(S(=O)(=O)C(F)(F)F)c5)cc4)CC3)c2)c(-c2ccc(Cl)cc2)n1C(C)C
- viability, T/C (second compound 0.0316 µM, first compound 0.000949 µM): 96.5%
- viability, T/C (second compound 0.0316 µM, first compound 0.003 µM): 97%
- viability, T/C (second compound 0.0316 µM, first compound 0.00949 µM): 84.1%
- viability, T/C (second compound 0.0316 µM, first compound 0.03 µM): 89.1%
- viability, T/C (second compound 0.0316 µM, first compound 0.0949 µM): 86%
- viability, T/C (second compound 0.0316 µM, first compound 0.3 µM): 72.3%
- viability, T/C (second compound 0.1 µM, first compound 0.000949 µM): 93.9%
- viability, T/C (second compound 0.1 µM, first compound 0.003 µM): 88.4%
- viability, T/C (second compound 0.1 µM, first compound 0.00949 µM): 84.4%
- viability, T/C (second compound 0.1 µM, first compound 0.03 µM): 80.7%
- viability, T/C (second compound 0.1 µM, first compound 0.0949 µM): 81.8%
- viability, T/C (second compound 0.1 µM, first compound 0.3 µM): 69.5%
- viability, T/C (second compound 0.316 µM, first compound 0.000949 µM): 83.5%
- viability, T/C (second compound 0.316 µM, first compound 0.003 µM): 90.7%
- viability, T/C (second compound 0.316 µM, first compound 0.00949 µM): 75.2%
- viability, T/C (second compound 0.316 µM, first compound 0.03 µM): 78.8%
- viability, T/C (second compound 0.316 µM, first compound 0.0949 µM): 72%
- viability, T/C (second compound 0.316 µM, first compound 0.3 µM): 71.3%
- viability, T/C (second compound 1 µM, first compound 0.000949 µM): 78.9%
- viability, T/C (second compound 1 µM, first compound 0.003 µM): 75.2%
- viability, T/C (second compound 1 µM, first compound 0.00949 µM): 68.8%
- viability, T/C (second compound 1 µM, first compound 0.03 µM): 72%
- viability, T/C (second compound 1 µM, first compound 0.0949 µM): 72.7%
- viability, T/C (second compound 1 µM, first compound 0.3 µM): 61%
- viability, T/C (second compound 3.16 µM, first compound 0.000949 µM): 61.2%
- viability, T/C (second compound 3.16 µM, first compound 0.003 µM): 59.6%
- viability, T/C (second compound 3.16 µM, first compound 0.00949 µM): 57.6%
- viability, T/C (second compound 3.16 µM, first compound 0.03 µM): 58.8%
- viability, T/C (second compound 3.16 µM, first compound 0.0949 µM): 55.7%
- viability, T/C (second compound 3.16 µM, first compound 0.3 µM): 49.6%
- viability, T/C (second compound 10 µM, first compound 0.000949 µM): 50.1%
- viability, T/C (second compound 10 µM, first compound 0.003 µM): 45.6%
- viability, T/C (second compound 10 µM, first compound 0.00949 µM): 48.6%
- viability, T/C (second compound 10 µM, first compound 0.03 µM): 44%
- viability, T/C (second compound 10 µM, first compound 0.0949 µM): 52%
- viability, T/C (second compound 10 µM, first compound 0.3 µM): 36.2%
